Source: patent US12728116B2, “Methods of treating multiple sclerosis” (Vanda Pharmaceuticals Inc., priority 2021, dated 2026)

Legend:
[1] = system: adult subjects with relapsing MS; assay: Treatment-emergent adverse events (Safety Set); type: in vivo, human; conditions: for AESI effect on heart rate and rhythm (including hypotension) on Day 1: subjects with at least one AE, %: Day 1 (ponesimod dose 2 mg);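 as to all read-outs here: safety Set comprises every randomized subject given one or more doses, analysed by the treatment actually received rather than the assigned arm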
Procedure: The Safety Set (SAF) included all randomized subjects who received at least one dose of study treatment. Subjects were analyzed based on actual treatment taken, not randomized treatment.

[2] = system: adult subjects with relapsing MS; assay: Premature treatment discontinuation; type: in vivo
Procedure: A total of 1468 subjects were screened. Of those, 1133 subjects were randomized (567 to ponesimod 20 mg and 566 to teriflunomide 14 mg) across 162 sites in 28 countries, and 1131 subjects received at least one dose of study drug. The disposition of subjects is summarized in Table 1 and a summary of reasons (primary reason) for treatment discontinuation are shown in Table 2. Overall treatment and study discontinuation were balanced across both treatment arms. A total of 6.5% and 2.5% of the subjects discontinued due to AEs or tolerability related reasons in ponesimod 20 mg and teriflunomide 14 mg, respectively, while 1.9% and 4.3% discontinued due to efficacy related reasons. There were 2 deaths reported during the study—both on teriflunomide 14 mg.

[3] = system: adult subjects with relapsing MS; assay: Time to first 12-week / 24-week confirmed disability accumulation (CDA) on EDSS; type: in vivo, human; conditions: ponesimod 20 mg, teriflunomide 14 mg
Procedure: Secondary efficacy variables and testing strategy: Four secondary efficacy endpoints were analyzed as per the statistical testing strategy outlined in FIG. 1. • Change from baseline to Week 108 in fatigue-related symptoms as measured by the symptoms domain of the FSIQ-RMS patient-reported outcome [Fatigue] • Cumulative number of combined unique active lesions from baseline to Week 108 on brain MRI [CUALs] • Time to first 12-week confirmed disability accumulation (CDA) from baseline to EOS on Expanded Disability Status Scale (EDSS) [12-week CDA] • Time to first 24-week CDA from baseline to EOS on EDSS [24-week CDA]
A 12-week CDA is an increase of at least 1.5 in EDSS for subjects with a baseline EDSS score of 0.0 or an increase of at least 1.0 in EDSS for subjects with a baseline EDSS score of 1.0 to 5.0, or an increase of at least 0.5 in EDSS for subjects with a baseline EDSS score≥5.5 which is to be confirmed after 12 weeks.
All EDSS measurements (with or without relapse, at a scheduled or unscheduled visit) were used to determine the onset of disability accumulation. However, EDSS scores used for confirmation of disability accumulation were obtained at a scheduled visit (i.e., unscheduled visits cannot be used as confirmatory visits) outside any ongoing relapse. In this context, relapse duration is defined as period between start and end dates if available and limited to 90 days from onset if end date is not available or duration is longer than 90 days.
In order to confirm that the EDSS increase is persistent, all EDSS measurements between the onset and the 12-week EDSS confirmation (minus 7-day visit time-window) need to show an increase in EDSS, meeting the criteria for accumulation of disability as defined above.
A 24-week CDA is an increase of at least 1.5 in EDSS for subjects with a baseline EDSS score of 0.0 or an increase of at least 1.0 in EDSS for subjects with a baseline EDSS score of 1.0 to 5.0, or an increase of at least 0.5 in EDSS for subjects with a baseline EDSS score≥5.5 which is to be confirmed after 24 weeks.
In order to confirm that the EDSS increase is persistent, all EDSS measurements between the onset and the 24-week EDSS confirmation (minus 7-day visit time-window) need to show an increase in EDSS, meeting the criteria for accumulation of disability as defined above.

[4] = system: adult subjects with relapsing MS; assay: 12-lead ECG heart rate and first-dose effects on Day 1; type: in vivo, human; conditions: Day 1
Procedure: As per up-titration regimen, the dose of ponesimod on Day 1 is 2 mg.

[5] = ponesimod 20 mg, teriflunomide 14 mg
[6] = treatment-emergent AESI, Safety Set
[7] = treatment-emergent AESI, Safety Set, listed as teriflunomide
[8] = treatment-emergent, Safety Set, listed as teriflunomide

For `C/C(O)=C(\C#N)C(=O)Nc1ccc(C(F)(F)F)cc1` [Teriflunomide, reference compound], the “AESI effect on heart rate and rhythm (including hypotension) on Day 1: subjects with at least one AE, %” value ([1]; Safety Set) was “(0.4) %”, the “AESI effect on heart rate and rhythm (including hypotension) on Day 1: subjects with at least one AE, %” value ([1]; Safety Set, listed as teriflunomide) was 0.4% and the “Day 1 AESI PT Electrocardiogram QT prolonged, %” value ([1]; Day 1, Safety Set) was “(0.2) %”. The “Day 1 AESI PT Presyncope, %” value ([1]; Day 1, Safety Set) was “(0.2) %”, the “TEAE ALT increased, subjects” value [1, 5] was 9.4% and the “TEAE headache, subjects” value [1, 5] was 12.7%. The “TEAE nasopharyngitis, subjects” value [1, 5] was 16.8%, the “TEAE upper respiratory tract infection, subjects” value [1, 5] was 10.4% and the “AESI category Effect on heart rate and rhythm (including aypotension), %” value [1, 6] was “(4.2) %”. For the same compound, the “AESI category Hepatobiliary disorders/Liver enzyme abnormality, %” value [1, 6] was “(14.5) %”, the “AESI category Herpetic infection, %” value [1, 6] was “(4.8) %” and the “AESI category Hypertension, %” value [1, 6] was “(9.0) %”. For the same compound, the “AESI category Macular edema, %” value [1, 6] was “(0.2) %”, the “AESI category Non-skin malignancy, %” value [1, 6] was “(0.2) %” and the “AESI category Pulmonary events, %” value [1, 6] was “(2.7) %”. For the same compound, the “AESI category Seizure, %” value [1, 6] was “(0.2) %”, the “AESI category Skin malignancy, %” value [1, 6] was “(0.2) %” and the “AESI category Hepatobiliary disorders/Liver enzyme abnormality, %” value [1, 7] was 14.5%. The “AESI category Hypertension, %” value [1, 7] was 9.0%, the “AESI category Pulmonary events, %” value [1, 7] was 2.7% and the “AESI category Infection, %” value ([1]; treatment-emergent AESI, only if reported as serious or severe, Safety Set) was “(0.9) %”. For the same compound, the “AEs leading to premature discontinuation, SOC Blood and lymphatic system disorders, %” value ([1]; treatment-emergent, Safety Set) was “(0.4) %”, the “AEs leading to premature discontinuation, SOC Cardiac disorders, %” value ([1]; treatment-emergent, Safety Set) was “(0.4) %” and the “AEs leading to premature discontinuation, SOC Gastrointestinal disorders, %” value ([1]; treatment-emergent, Safety Set) was “(0.7) %”. The “AEs leading to premature discontinuation, SOC General disorders and administration site conditions, %” value ([1]; treatment-emergent, Safety Set) was “(0.4) %”, the “AEs leading to premature discontinuation, SOC Hepatobiliary disorders, %” value ([1]; treatment-emergent, Safety Set) was “(0.4) %” and the “AEs leading to premature discontinuation, SOC Investigations, %” value ([1]; treatment-emergent, Safety Set) was “(1.8) %”. For the same compound, the “AEs leading to premature discontinuation, SOC Musculoskeletal and connective tissue disorders, %” value ([1]; treatment-emergent, Safety Set) was “(0.2) %”, the “AEs leading to premature discontinuation, SOC Neoplasms benign, malignant and unspecified (incl cysts and polyps), %” value ([1]; treatment-emergent, Safety Set) was “(0.2) %” and the “AEs leading to premature discontinuation, SOC Nervous system disorders, %” value ([1]; treatment-emergent, Safety Set) was “(0.7) %”. The “AEs leading to premature discontinuation, SOC Pregnancy, puerperium and perinatal conditions, %” value ([1]; treatment-emergent, Safety Set) was “(0.5) %”, the “AEs leading to premature discontinuation, SOC Psychiatric disorders, %” value ([1]; treatment-emergent, Safety Set) was “(0.2) %” and the “AEs leading to premature discontinuation, SOC Reproductive system and breast disorders, %” value ([1]; treatment-emergent, Safety Set) was “(0.2) %”. For the same compound, the “AEs leading to premature discontinuation, SOC Skin and subcutaneous tissue disorders, %” value ([1]; treatment-emergent, Safety Set) was “(0.4) %”, the “AEs leading to premature discontinuation, SOC Social circumstances, %” value ([1]; treatment-emergent, Safety Set) was “(0.2) %” and the “AEs leading to premature discontinuation, SOC Surgical and medical procedures, %” value ([1]; treatment-emergent, Safety Set) was “(0.2) %”. For the same compound, the “Subjects with at least one AE leading to study drug discontinuation, %” value ([1]; treatment-emergent, Safety Set) was “(6.0) %”, the “Subjects with at least one AE, %” value ([1]; treatment-emergent, Safety Set) was “(88.2) %” and the “Subjects with at least one Drug-Related AE, %” value ([1]; treatment-emergent, Safety Set) was “(42.0) %”. The “Subjects with at least one Fatal AE, %” value ([1]; treatment-emergent, Safety Set) was “(0.4) %”, the “Subjects with at least one Serious AE, %” value ([1]; treatment-emergent, Safety Set) was “(8.1) %” and the “Subjects with at least one Severe AE, %” value ([1]; treatment-emergent, Safety Set) was “(4.6) %”. For the same compound, the “Subjects with at least one AE leading to study drug discontinuation, %” value [1, 8] was 6.0%, the “Subjects with at least one AE, %” value [1, 8] was 88.2% and the “Subjects with at least one Serious AE, %” value [1, 8] was 8.1%. The “Premature discontinuation: Death, %” value ([2]; Safety Set) was “(0.4) %”, the “Premature discontinuation: Physician decision, Adverse event, %” value ([2]; Safety Set) was “(1.6) %” and the “Premature discontinuation: Subject decision, Tolerability related, %” value ([2]; Safety Set) was “(0.9) %”. The “Subjects discontinued due to AEs or tolerability related reasons” value [2, 5] was 2.5%, the “Subjects with a 12-week CDA up to EOS” value [3] was 12.4% and the “Subjects with a 24-week CDA up to EOS” value ([3]; exploratory) was 9.9%. For the same compound, the “Mean heart rate change compared to pre-dose at 2-hours post dose” value ([4]; 12-lead ECG, Safety Set) was −1.7 bpm and the “Subjects with asymptomatic post-dose HR≤40 bpm” value ([4]; all with pre-treatment HR <55 bpm) was “none”.
